Earlier results on three molecules are cited in US7456204B2, “Cyclohexylglycine derivatives as dipeptidyl peptidase inhibitors for the treatment or prevention of diabetes” (Merck & Co., Inc., priority 2003, dated 2008).

Data set [1] relates to cardiac allograft survival. The following applies: rats; from day 7 to day 14.
Another data set relates to hematopoiesis. Conditions: mouse, cyclophosphamide-induced neutropenia.
For the next data set, the target named is T1, DP-IV (Homo sapiens, UniProt P27487).
T1 construct: GRF is rapidly degraded in plasma to GRF[3-44]
T1 sequence (P27487 39-766 limits assumed): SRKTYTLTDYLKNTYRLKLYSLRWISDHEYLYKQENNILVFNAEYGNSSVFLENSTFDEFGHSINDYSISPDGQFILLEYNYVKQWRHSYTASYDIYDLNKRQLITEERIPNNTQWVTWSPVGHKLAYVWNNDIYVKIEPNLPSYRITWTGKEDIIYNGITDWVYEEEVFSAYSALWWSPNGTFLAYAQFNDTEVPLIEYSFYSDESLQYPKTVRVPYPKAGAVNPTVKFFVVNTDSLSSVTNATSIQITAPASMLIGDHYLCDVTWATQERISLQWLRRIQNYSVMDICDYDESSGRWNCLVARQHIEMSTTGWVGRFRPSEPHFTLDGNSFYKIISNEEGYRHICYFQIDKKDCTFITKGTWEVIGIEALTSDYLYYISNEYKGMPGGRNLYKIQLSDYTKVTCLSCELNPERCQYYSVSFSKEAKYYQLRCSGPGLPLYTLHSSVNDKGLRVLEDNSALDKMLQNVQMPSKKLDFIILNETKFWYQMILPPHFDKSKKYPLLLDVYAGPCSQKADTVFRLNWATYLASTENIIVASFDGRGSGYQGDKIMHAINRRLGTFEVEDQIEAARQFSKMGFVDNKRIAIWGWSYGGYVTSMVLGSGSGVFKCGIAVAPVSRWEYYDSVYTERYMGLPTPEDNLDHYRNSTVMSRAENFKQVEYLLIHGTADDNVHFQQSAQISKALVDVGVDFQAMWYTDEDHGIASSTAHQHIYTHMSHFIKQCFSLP

For `CC(C)N1CCC(c2ccccc2)(c2ccccc2)CC1` [Prodipine, Pro-Pro-diphenyl-phosphonate], in data set [1], the cardiac allograft survival entry was “double cardiac allograft survival”.

On to `CC(C)[C@H](N)C(=O)N1CCC[C@H]1B(O)O` [Val-Boro-Pro], for which, in the data set with hematopoiesis, the hematopoiesis entry was “stimulated hematopoiesis”.

`CC[C@H](C)[C@H](N)C(=O)N1CCC[C@H]1C(=O)N[C@H](C(=O)O)[C@@H](C)CC` [diprotin A]: the “degradation of GRF in plasma to GRF[3-44]” value on DP-IV is “prevented”.
